In patent US12251381B2, “Aripiprazole dosing strategy” (Alkermes Pharma Ireland Limited, priority 2018, dated 2025):

Test: Phase 1 study: injection-site evaluation (injection-site reactions)
Format: in vivo, human
Conditions: for patients who experienced ISRs / patients with injection-site pain: associated with the named injection; for Injection-site discomfort / Injection-site erythema / Injection-site induration / Injection-site pain / Injection-site swelling / Patients with at least one ISR: reactions associated with the named injection on day 1
Description: The duration of the study was approximately 6 months and consisted of screening, inpatient dosing, outpatient, and follow-up period (FIG. 1). […] A total of 160 patients were planned to be enrolled and randomized 1:1:1:1 to one of four treatment groups, as follows: 1-day initiation regimen groups (30 mg oral aripiprazole plus ALNCD, plus either AL 441 or 882 mg [on day 1] then 20 days of oral placebo), or 21-day initiation regimen groups (15 mg oral aripiprazole plus placebo IM, plus either AL 441 or 882 mg [on day 1] followed by 20 days of oral aripiprazole 15 mg/day). […] ALNCD or placebo were administered as IM injections in the gluteal muscle. For the AL doses, a single 441 mg dose was given in the deltoid muscle or a single 882 mg dose in the gluteal muscle contralateral to the ALNCD (or placebo) injection. All safety analyses were performed using observed data from the safety population, and measurements included adverse events (AEs), vital signs measurements, weight, laboratory test results, ECG findings, Columbia-Suicide Severity Rating Scale (C-SSRS) responses, movement disorder measures, CGI-S responses, and injection-site evaluation. AEs were assessed daily on days 1-15, every other day from days 17-25, on days 28 and 31, once-weekly from days 35 to 85, and on days 113 and 141. Injection-site evaluations were carried out daily on days 1-15, every other day from days 17-25, and on day 28. The injection site and surrounding area were evaluated with each injection (separately for the ALNCD or placebo injection site and AL site). Any observed injection-site reactions were followed until resolution.

For `CCCCCCCCCCCC(=O)OCN1C(=O)CCc2ccc(OCCCCN3CCN(c4cccc(Cl)c4Cl)CC3)cc21` [AL, (7-(4-(4-(2,3-dichlorophenyl)piperazin-1-yl)butoxy)-2-oxo-3,4-dihydroquinolin-1(2H)-yl)methyl dodecanoate], the “severity of Injection-Site Reactions (ISRs)” value (all ISRs associated with the injection) was “mild-to-moderate”, the “patients who experienced ISRs” value (listed as AL 441 mg) was 22.8% and the “patients with injection-site pain” value (listed as AL 441 mg) was 20.3%. The “patients who experienced ISRs” value (listed as AL 882 mg) was 18.3%, the “patients with injection-site pain” value (listed as AL 882 mg) was 18.3% and the Injection-site discomfort (listed as AL 441 mg) was 1 (1.3) n (%). The Injection-site erythema (listed as AL 441 mg) was 1 (1.3) n (%), the Injection-site induration (listed as AL 441 mg) was 4 (5.1) n (%) and the Injection-site pain (listed as AL 441 mg) was 16 (20.3) n (%). For the same compound, the Injection-site swelling (listed as AL 441 mg) was 2 (2.5) n (%), the “Patients with at least one ISR” value (listed as AL 441 mg) was 18 (22.8) n (%) and the Injection-site discomfort (listed as AL 882 mg) was 0 n (%). The Injection-site erythema (listed as AL 882 mg) was 0 n (%), the Injection-site induration (listed as AL 882 mg) was 2 (2.4) n (%) and the Injection-site pain (listed as AL 882 mg) was 15 (18.3) n (%). The Injection-site swelling (listed as AL 882 mg) was 1 (1.2) n (%) and the “Patients with at least one ISR” value (listed as AL 882 mg) was 15 (18.3) n (%).
